By IC90 is commonly meant the point of the concentration-response curve where the effect stands at 90%.

From patent US20230012368A1 (Hoffmann-La Roche Inc., priority 2018, published 2023) come the findings set out here.

Structures are written as SMILES. Structures can show the parent of a compound that is named as a salt.

One experiment has as its system Acinetobacter baumannii ATCC 17978. The experiment can be described thus: Antimicrobial susceptibility testing: 90% growth inhibitory concentration (IC90) determination. It is filed as cell-based. The note with it: 90% growth inhibitory concentration; Acinetobacter baumannii ATCC17978; Iso-Sensitest broth, OD 600 nm over 16h; read-out: ATCC17978 IC90. In a few lines: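 Compounds serially twofold diluted (e.g. 50 to 0.097 μM final) in Iso-Sensitest broth, inoculated at ~5×10^(5) CFU/ml, incubated at 35±2° C. OD600 read every 20 minutes over 16h. IC90 taken as concentration inhibiting 90% of growth during logarithmic phase.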
With `N#CCOc1ccc(-c2cnc3c(Nc4ccc(C(=O)NCCc5nnn[nH]5)c(Cl)c4)nccn23)c(F)c1F` [Example 104, 2-chloro-4-[[3-[4-(cyanomethoxy)-2,3-difluoro-phenyl]imidazo[1,2-a]pyrazin-8-yl]amino]-N-[2-(1H-tetrazol-5-yl)ethyl]benzamide], the 90% effect concentration (IC90) stood at 1.1 µM.

Regarding `COc1ccc(-c2cnc3c(Nc4ccc(C(=O)NCC5CCS(=O)(=O)CC5)c(Cl)c4)nccn23)c(F)c1F` [Example 106, 2-chloro-4-[[3-(2,3-difluoro-4-methoxy-phenyl)imidazo[1,2-a]pyrazin-8-yl]amino]-N-[(1,1-dioxothian-4-yl)methyl]benzamide; 2,2,2-trifluoroacetic acid], the concentration for an effect of 90% (IC90) stood at 0.14 µM. On to `COc1ccc(-c2cnc3c(Nc4ccc(C(=O)N(C)CCN5CCOC(CN(C)C)C5)c(C)c4)nccn23)cc1F` (stereo not drawn) [Example 108, N-[2-[2-[(dimethylamino)methyl]morpholin-4-yl]ethyl]-4-[[3-(3-fluoro-4-methoxy-phenyl)imidazo[1,2-a]pyrazin-8-yl]amino]-N,2-dimethyl-benzamide; formic acid], for which the IC90 worked out at 1.2 µM. Regarding `CNCC1CN(CCN(C)C(=O)c2ccc(Nc3nccn4c(-c5ccc(OC)c(F)c5)cnc34)cc2C)CCO1` (stereo not drawn) [Example 109, 4-[[3-(3-fluoro-4-methoxy-phenyl)imidazo[1,2-a]pyrazin-8-yl]amino]-N,2-dimethyl-N-[2-[2-(methylaminomethyl)morpholin-4-yl]ethyl]benzamide hydrochloride], the concentration for an effect of 90% (IC90) was 0.96 µM. On the same count and under the same terms, for `COc1ccc(-c2cnc3c(Nc4ccc(C(=O)N(C)CCN5CCN(CC(F)F)CC5)c(C)c4)nccn23)cc1F` [Example 113, N-[2-[4-(2,2-difluoroethyl)piperazin-1-yl]ethyl]-4-[[3-(3-fluoro-4-methoxy-phenyl)imidazo[1,2-a]pyrazin-8-yl]amino]-N,2-dimethyl-benzamide; formic acid] the value was 2 µM; for `CCc1cc(Nc2nccn3c(-c4ccc(OC)c(F)c4F)cnc23)ccc1C(=O)NCCN` [Example 117, N-(2-aminoethyl)-4-((3-(2,3-difluoro-4-methoxyphenyl)imidazo[1,2-a]pyrazin-8-yl)amino)-2-ethylbenzamide dihydrochloride], 0.56 µM.

Turning to `CCc1cc(Nc2nccn3c(-c4ccc(OC)c(F)c4F)cnc23)ccc1C(=O)NCCCN` [Example 118, N-(3-aminopropyl)-4-((3-(2,3-difluoro-4-methoxyphenyl)imidazo[1,2-a]pyrazin-8-yl)amino)-2-ethylbenzamide dihydrochloride], the 90% effect concentration (IC90) is 0.45 µM.

The same experiment, now with this note: Acinetobacter baumannii, ATCC17978, 16 h, 90% growth inhibitory concentration; Acinetobacter baumannii ATCC17978; Iso-Sensitest broth, OD 600 nm over 16h; read-out: ATCC17978 IC90.
Take `CCc1cc(Nc2nccn3c(-c4ccc(OC(F)F)c(F)c4F)cnc23)ccc1C(=O)NCCCCCN` [Example 96, N-(5-aminopentyl)-4-((3-(4-(difluoromethoxy)-2,3-difluorophenyl)imidazo [1,2-a]pyrazin-8-yl)amino)-2-ethylbenzamide hydrochloride]: the concentration for an effect of 90% (IC90) is 0.07 µM. For `CCc1cc(Nc2nccn3c(-c4ccc(OC)c(F)c4F)cnc23)ccc1C(=O)NCC(C)(C)CN` [Example 98, N-(3-amino-2,2-dimethylpropyl)-4-((3-(2,3-difluoro-4-methoxyphenyl)imidazo [1,2-a]pyrazin-8-yl)amino)-2-ethylbenzamide hydrochloride], the IC90 was 0.78 µM.

On to `CCc1cc(Nc2nccn3c(-c4ccc(OC)c(F)c4F)cnc23)ccc1C(=O)NC(C)(C)CN` [Example 99, N-(1-amino-2-methylpropan-2-yl)-4-((3-(2,3-difluoro-4-methoxyphenyl)imidazo [1,2-a]pyrazin-8-yl)amino)-2-ethylbenzamide hydrochloride], for which the IC90 worked out at 0.35 µM. With `CCc1cc(Nc2nccn3c(-c4ccc(OC(F)F)c(F)c4F)cnc23)ccc1C(=O)NC(C)(C)CCN` [Example 100, N-(4-amino-2-methylbutan-2-yl)-4-((3-(4-(difluoromethoxy)-2,3-difluorophenyl)imidazo [1,2-a]pyrazin-8-yl)amino)-2-ethylbenzamide hydrochloride], the 90% effect concentration (IC90) is 0.35 µM. In the case of `CCc1cc(Nc2nccn3c(-c4ccc(OC)c(F)c4F)cnc23)ccc1C(=O)N[C@H](C)CN` [Example 101, (R)-N-(1-aminopropan-2-yl)-4-((3-(2,3-difluoro-4-methoxyphenyl)imidazo [1,2-a]pyrazin-8-yl)amino)-2-ethylbenzamide dihydrochloride], the concentration for an effect of 90% (IC90) was found to be 0.24 µM. The same measure, in the same setting: for `CCc1cc(Nc2nccn3c(-c4ccc(OC)c(F)c4F)cnc23)ccc1C(=O)N[C@@H](C)CN` [Example 102, (S)-N-(1-aminopropan-2-yl)-4-((3-(2,3-difluoro-4-methoxyphenyl)imidazo [1,2-a]pyrazin-8-yl)amino)-2-ethylbenzamide dihydrochloride] the value was 0.32 µM; for `CCc1cc(Nc2nccn3c(-c4ccc(OC)c(F)c4F)cnc23)ccc1C(=O)NCCCNC(=O)CN` [Example 103, N-(3-(2-aminoacetamido)propyl)-4-((3-(2,3-difluoro-4-methoxyphenyl)imidazo [1,2-a]pyrazin-8-yl)amino)-2-ethylbenzamide hydrochloride], 0.08 µM. Still for that read-out and setting: as for `COc1ccc(-c2cnc3c(Nc4ccc(C(=O)N(C)CCn5ccnc5)c(C)c4)nccn23)cc1F` [Example 105, 4-[[3-(3-fluoro-4-methoxy-phenyl)imidazo[1,2-a]pyrazin-8-yl]amino]-N-(2-imidazol-1-ylethyl)-N,2-dimethyl-benzamide], the figure is 0.82 µM; as for `COc1ccc(-c2cnc3c(Nc4ccc(C(=O)N(C)C)cc4)nccn23)c(F)c1F` [Example 107, 4-[[3-(2,3-difluoro-4-methoxy-phenyl)imidazo[1,2-a]pyrazin-4-yl]amino]-N,N-dimethyl-benzamide], 0.12 µM. Take `CNC(=O)c1ccc(Nc2nccn3c(-c4ccc(OC(F)F)cc4)cnc23)cc1Cl` [Example 110, 2-chloro-4-((3-(4-(difluoromethoxy)phenyl)imidazo[1,2-a]pyrazin-8-yl)amino)-N-methylbenzamide]: the concentration for an effect of 90% (IC90) is 0.25 µM. As for `O=C(NCc1ccccn1)c1ccc(Nc2nccn3c(-c4ccc(OC(F)F)cc4)cnc23)cc1Cl` [Example 111, 2-chloro-4-((3-(4-(difluoromethoxy)phenyl)imidazo[1,2-a]pyrazin-8-yl)amino)-N-(pyridin-2-ylmethyl)benzamide], the 90% effect concentration (IC90) stood at 2.1 µM. As to `COc1ccc(-c2cnc3c(Nc4ccc(C(=O)N(C)CCc5ncc[nH]5)c(C)c4)nccn23)cc1F` [Example 112, 4-[[3-(3-fluoro-4-methoxy-phenyl)imidazo[1,2-a]pyrazin-8-yl]amino]-N-[2-(1H-imidazol-2-yl)ethyl]-N,2-dimethyl-benzamide], the IC90 came to 0.96 µM. Consider `COc1ccc(-c2cnc3c(Nc4ccc5c(c4)CCN(CCN(C)C)C5=O)nccn23)cc1F` [Example 116, 2-[2-(dimethylamino)ethyl]-6-[[3-(3-fluoro-4-methoxy-phenyl)imidazo[1,2-a]pyrazin-8-yl]amino]-3,4-dihydroisoquinolin-1-one], for which the IC90 came to 0.94 µM. For `CCc1cc(Nc2nccn3c(-c4ccc(OC)c(F)c4F)cnc23)ccc1C(=O)NCCCNC(=O)NCCN` [Example 119, N-[3-(2-aminoethylcarbamoylamino)propyl]-4-[[3-(2,3-difluoro-4-methoxy-phenyl)imidazo[1,2-a]pyrazin-8-yl]amino]-2-ethyl-benzamide], the IC90 stood at 0.18 µM. Same read-out and setting: for `CCc1cc(Nc2nccn3c(-c4ccc(OC)c(F)c4F)cnc23)ccc1C(=O)NCCCNC(=O)NCCCN` [Example 120] the value was 0.14 µM. As to `CCc1cc(Nc2nccn3c(-c4ccc(OC)c(F)c4F)cnc23)ccc1C(=O)NCCNC(=O)[C@@H](N)CCCNC(=N)N` [Example 121, N-[2-[[(2S)-2-amino-5-guanidino-pentanoyl]amino]ethyl]-4-[[3-(2,3-difluoro-4-methoxy-phenyl)imidazo[1,2-a]pyrazin-8-yl]amino]-2-ethyl-benzamide trifluoroacetate], the IC90 is 0.28 µM. As for `CCc1cc(Nc2nccn3c(-c4ccc(OC)c(F)c4F)cnc23)ccc1C(=O)NC[C@@H](C)NC(=O)[C@@H](N)CCCNC(=N)N` [Example 122, N-[(2R)-2-[[(2S)-2-amino-5-guanidino-pentanoyl]amino]propyl]-4-[[3-(2,3-difluoro-4-methoxy-phenyl)imidazo[1,2-a]pyrazin-8-yl]amino]-2-ethyl-benzamide formate], the 90% effect concentration (IC90) was 0.31 µM. `CCc1cc(Nc2nccn3c(-c4ccc(OC)c(F)c4F)cnc23)ccc1C(=O)NC[C@H](C)NC(=O)[C@@H](N)CCCNC(=N)N` [Example 123, N-[(2S)-2-[[(2S)-2-amino-5-guanidino-pentanoyl]amino]propyl]-4-[[3-(2,3-difluoro-4-methoxy-phenyl)imidazo[1,2-a]pyrazin-8-yl]amino]-2-ethyl-benzamide formate]: the concentration for an effect of 90% (IC90) worked out at 0.41 µM. The same measure, in the same setting: as for `CCc1cc(Nc2nccn3c(-c4ccc(OCC#N)c(F)c4F)cnc23)ccc1C(=O)NCCNC(=O)[C@@H](N)CCCNC(=N)N` [Example 124, N-[2-[[(2S)-2-amino-5-guanidino-pentanoyl]amino]ethyl]-4-[[3-[4-(cyanomethoxy)-2,3-difluoro-phenyl]imidazo[1,2-a]pyrazin-8-yl]amino]-2-ethyl-benzamide formate], the figure is 0.09 µM.

The same experiment, now with this note: Acinetobacter baumannii, ATCC17978, 16 h, read-out: ATCC17978 IC90 [μM].
As to `CCOP(=O)(OCC)N1CCC(CCN(C)C(=O)c2ccc(Nc3nccn4c(-c5ccc(OC(F)F)cc5)cnc34)cc2C)CC1` [Example 115, N-[2-(1-diethoxyphosphoryl-4-piperidyl)ethyl]-4-[[3-[4-(difluoromethoxy)phenyl]imidazo[1,2-a]pyrazin-8-yl]amino]-N,2-dimethyl-benzamide], the 90% effect concentration (IC90) is 0.85 µM.
